Data taken from PubChem BioAssay (NCI).
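1) Cells in 96-well plates. 2) Compound, 48 h, 5 concentrations. 3) Linear interpolation between surrounding doses. 4) Unreached endpoint = highest concentration. Definition used: TGI = concentration required for complete inhibition of growth.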

Tests used:
Experiment in all cases: NCI tumour cell line growth inhibition, 48 h
[1] = test system: 786-0 renal
[2] = test system: A498 renal
[3] = test system: A549 NSCLC
[4] = test system: ACHN renal
[5] = test system: BT-549 breast
[6] = test system: CCRF-CEM leukemia
[7] = test system: COLO 205 colon
[8] = test system: DU-145 prostate
[9] = test system: EKVX NSCLC
[10] = test system: HCC-2998 colon
[11] = test system: HCT-116 colon
[12] = test system: HCT-15 colon
[13] = test system: HL-60(TB) leukemia
[14] = test system: HOP-62 NSCLC
[15] = test system: HOP-92 NSCLC
[16] = test system: HS 578T breast
[17] = test system: HT29 colon
[18] = test system: IGROV1 ovarian
[19] = test system: K-562 leukemia
[20] = test system: LOX IMVI melanoma
[21] = test system: M14 melanoma
[22] = test system: MALME-3M melanoma
[23] = test system: MCF7 breast
[24] = test system: MDA-MB-231 breast
[25] = test system: MDA-MB-435
[26] = test system: MDA-N
[27] = test system: MOLT-4 leukemia
[28] = test system: NCI-H226 lung
[29] = test system: NCI-H23 lung
[30] = test system: NCI-H460 lung
[31] = test system: NCI-H522 lung
[32] = test system: OVCAR-3 ovarian
[33] = test system: OVCAR-4 ovarian
[34] = test system: OVCAR-5 ovarian
[35] = test system: PC-3 prostate
[36] = test system: RPMI-8226 leukemia
[37] = test system: RXF 393 renal
[38] = test system: SF-268 CNS
[39] = test system: SF-295 CNS
[40] = test system: SF-539 CNS
[41] = test system: SK-MEL-2 melanoma
[42] = test system: SK-MEL-28 melanoma
[43] = test system: SK-MEL-5 melanoma
[44] = test system: SK-OV-3 ovarian
[45] = test system: SN12C renal
[46] = test system: SNB-19 CNS
[47] = test system: SR leukemia
[48] = test system: SW-620 colon
[49] = test system: T-47D breast
[50] = test system: TK-10 renal
[51] = test system: U251 CNS
[52] = test system: UACC-257 melanoma
[53] = test system: UACC-62 melanoma
[54] = test system: UO-31 renal
[55] = test system: KM12 colon
[56] = test system: NCI/ADR-RES ovarian
[57] = test system: OVCAR-8 ovarian
[58] = test system: SNB-75 CNS
[59] = test system: CAKI-1 renal

## CC(=O)NCCCCN(CCCNC(C)=O)C(=O)CNS(=O)(=O)c1cccc2c(N(C)C)cccc12
[1]
  TGI: > 100 µM
[2]
  TGI: > 100 µM
[3]
  TGI: > 100 µM
[4]
  TGI: > 100 µM
[5]
  TGI: > 100 µM
[6]
  TGI: > 100 µM
[7]
  TGI: > 100 µM
[8]
  TGI: > 100 µM
[9]
  TGI: > 100 µM
[10]
  TGI: > 100 µM
[11]
  TGI: > 100 µM
[12]
  TGI: > 100 µM
[13]
  TGI: > 100 µM
[14]
  TGI: > 100 µM
[15]
  TGI: > 100 µM
[16]
  TGI: > 100 µM
[17]
  TGI: > 100 µM
[18]
  TGI: > 100 µM
[19]
  TGI: > 100 µM
[20]
  TGI: > 100 µM
[21]
  TGI: > 100 µM
[22]
  TGI: > 100 µM
[23]
  TGI: > 100 µM
[24]
  TGI: > 100 µM
[25]
  TGI: > 100 µM
[26]
  TGI: > 100 µM
[27]
  TGI: > 100 µM
[28]
  TGI: > 100 µM
[29]
  TGI: > 100 µM
[30]
  TGI: > 100 µM
[31]
  TGI: > 100 µM
[32]
  TGI: > 100 µM
[33]
  TGI: > 100 µM
[34]
  TGI: > 100 µM
[35]
  TGI: > 100 µM
[36]
  TGI: > 100 µM
[37]
  TGI: > 100 µM
[38]
  TGI: > 100 µM
[39]
  TGI: > 100 µM
[40]
  TGI: > 100 µM
[41]
  TGI: > 100 µM
[42]
  TGI: > 100 µM
[43]
  TGI: > 100 µM
[44]
  TGI: > 100 µM
[45]
  TGI: > 100 µM
[46]
  TGI: > 100 µM
[47]
  TGI: > 100 µM
[48]
  TGI: > 100 µM
[49]
  TGI: > 100 µM
[50]
  TGI: > 100 µM
[51]
  TGI: > 100 µM
[52]
  TGI: > 100 µM
[53]
  TGI: > 100 µM
[54]
  TGI: > 100 µM

## O=C(O)c1ccccc1CC1Cc2cc3c(cc2C1)CCC3
[1]
  TGI: > 100 µM
[2]
  TGI: > 100 µM
[3]
  TGI: > 100 µM
[4]
  TGI: > 100 µM
[5]
  TGI: > 100 µM
[6]
  TGI: > 100 µM
[7]
  TGI: > 100 µM
[8]
  TGI: > 100 µM
[9]
  TGI: > 100 µM
[10]
  TGI: > 100 µM
[11]
  TGI: > 100 µM
[12]
  TGI: > 100 µM
[13]
  TGI: > 100 µM
[14]
  TGI: > 100 µM
[16]
  TGI: > 100 µM
[17]
  TGI: > 100 µM
[18]
  TGI: > 100 µM
[19]
  TGI: > 100 µM
[55]
  TGI: > 100 µM
[20]
  TGI: > 100 µM
[21]
  TGI: > 100 µM
[22]
  TGI: > 100 µM
[23]
  TGI: > 100 µM
[24]
  TGI: > 100 µM
[25]
  TGI: > 100 µM
[26]
  TGI: > 100 µM
[27]
  TGI: > 100 µM
[28]
  TGI: > 100 µM
[29]
  TGI: > 100 µM
[30]
  TGI: > 100 µM
[31]
  TGI: > 100 µM
[56]
  TGI: > 100 µM
[32]
  TGI: > 100 µM
[33]
  TGI: > 100 µM
[34]
  TGI: > 100 µM
[57]
  TGI: > 100 µM
[36]
  TGI: > 100 µM
[37]
  TGI: > 100 µM
[38]
  TGI: > 100 µM
[39]
  TGI: > 100 µM
[40]
  TGI: > 100 µM
[41]
  TGI: > 100 µM
[42]
  TGI: > 100 µM
[43]
  TGI: > 100 µM
[44]
  TGI: > 100 µM
[45]
  TGI: > 100 µM
[46]
  TGI: > 100 µM
[58]
  TGI: > 100 µM
[47]
  TGI: > 100 µM
[48]
  TGI: > 100 µM
[49]
  TGI: 85.6 µM
[50]
  TGI: > 100 µM
[51]
  TGI: > 100 µM
[52]
  TGI: > 100 µM
[53]
  TGI: > 100 µM
[54]
  TGI: > 100 µM

## CSc1nn(C)cc2ncnc1-2
[1]
  TGI: > 100 µM
[2]
  TGI: > 100 µM
[3]
  TGI: > 100 µM
[4]
  TGI: > 100 µM
[5]
  TGI: > 100 µM
[59]
  TGI: > 100 µM
[6]
  TGI: > 100 µM
[7]
  TGI: > 100 µM
[8]
  TGI: > 100 µM
[9]
  TGI: > 100 µM
[11]
  TGI: > 100 µM
[12]
  TGI: > 100 µM
[13]
  TGI: > 100 µM
[14]
  TGI: > 100 µM
[16]
  TGI: > 100 µM
[17]
  TGI: > 100 µM
[18]
  TGI: > 100 µM
[19]
  TGI: > 100 µM
[55]
  TGI: > 100 µM
[21]
  TGI: > 100 µM
[23]
  TGI: > 100 µM
[24]
  TGI: > 100 µM
[25]
  TGI: > 100 µM
[26]
  TGI: > 100 µM
[27]
  TGI: > 100 µM
[28]
  TGI: > 100 µM
[29]
  TGI: > 100 µM
[30]
  TGI: > 100 µM
[56]
  TGI: > 100 µM
[32]
  TGI: > 100 µM
[34]
  TGI: > 100 µM
[57]
  TGI: > 100 µM
[35]
  TGI: > 100 µM
[36]
  TGI: > 100 µM
[37]
  TGI: > 100 µM
[38]
  TGI: > 100 µM
[39]
  TGI: > 100 µM
[40]
  TGI: > 100 µM
[41]
  TGI: > 100 µM
[42]
  TGI: > 100 µM
[43]
  TGI: > 100 µM
[45]
  TGI: > 100 µM
[46]
  TGI: > 100 µM
[58]
  TGI: 64 µM
[47]
  TGI: > 100 µM
[48]
  TGI: > 100 µM
[49]
  TGI: > 100 µM
[50]
  TGI: > 100 µM
[51]
  TGI: > 100 µM
[52]
  TGI: > 100 µM
[53]
  TGI: > 100 µM
[54]
  TGI: > 100 µM

## O=C1C2CCCCC2C(=O)N1n1c(-c2ccccc2)n[nH]c1=O (stereo not drawn)
[1]
  TGI: > 100 µM
[2]
  TGI: > 100 µM
[3]
  TGI: > 100 µM
[4]
  TGI: > 100 µM
[5]
  TGI: > 100 µM
[59]
  TGI: > 100 µM
[6]
  TGI: > 100 µM
[7]
  TGI: > 100 µM
[9]
  TGI: > 100 µM
[10]
  TGI: > 100 µM
[11]
  TGI: > 100 µM
[12]
  TGI: > 100 µM
[14]
  TGI: > 100 µM
[15]
  TGI: > 100 µM
[16]
  TGI: > 100 µM
[17]
  TGI: > 100 µM
[18]
  TGI: > 100 µM
[19]
  TGI: > 100 µM
[55]
  TGI: > 100 µM
[20]
  TGI: > 100 µM
[21]
  TGI: > 100 µM
[22]
  TGI: > 100 µM
[23]
  TGI: > 100 µM
[24]
  TGI: > 100 µM
[25]
  TGI: > 100 µM
[26]
  TGI: > 100 µM
[27]
  TGI: > 100 µM
[28]
  TGI: > 100 µM
[29]
  TGI: > 100 µM
[30]
  TGI: > 100 µM
[31]
  TGI: > 100 µM
[56]
  TGI: > 100 µM
[32]
  TGI: > 100 µM
[33]
  TGI: > 100 µM
[34]
  TGI: > 100 µM
[57]
  TGI: > 100 µM
[35]
  TGI: > 100 µM
[36]
  TGI: > 100 µM
[37]
  TGI: > 100 µM
[38]
  TGI: > 100 µM
[39]
  TGI: > 100 µM
[40]
  TGI: > 100 µM
[41]
  TGI: > 100 µM
[43]
  TGI: > 100 µM
[44]
  TGI: > 100 µM
[45]
  TGI: > 100 µM
[46]
  TGI: > 100 µM
[58]
  TGI: > 100 µM
[47]
  TGI: > 100 µM
[48]
  TGI: > 100 µM
[49]
  TGI: > 100 µM
[50]
  TGI: > 100 µM
[51]
  TGI: > 100 µM
[52]
  TGI: > 100 µM
[53]
  TGI: > 100 µM
[54]
  TGI: > 100 µM
